Assay results: patent US7723388B2, “Avian appeasing pheromones to decrease stress, anxiety and aggressiveness” (priority 2002, dated 2010)

Tested on: population of mites (Dermanyssus gallinae, Omithonyssus sylvianm)
Assay: In vitro sensitivity of the mite population to mite treatments
Settings: for Dose to obtain LD50 / Dose to obtain LD100: pd: prescribed dose; for Dose to obtain LD50: 50% of mites killed over 24 hours; for Dose to obtain LD100: 100% of mites killed in 24 hours; for LD 100 at the dose of the product notice: surroundings corresponding to the conditions of breeding
Protocol: Mites were also tested for during the course of this example. At day 0, the first diffusers of the avian appeasing pheromone were posed and the sampling of mites was effectuated. For the 12 samples that were taken, 5 samples permitted the identification of the species of mites in the breeding; 3 were utilized and placed in a mite culture and recuperated at the end of the internal experiment; and 4 served to test the sensitivity of parasites to the mites used.
On the 5 samples effectuated, […] samples of parasites were identified. 76% (n=86) were identified as Dermanyssus gallinae (chicken mites) and 24% (n=28) were Omithonyssus sylvianm (Northern Fowl mites).
Testing the sensitivity of the mites was next conducted. This test was performed in the population of mites with an in vitro system that verifies the sensitivity of the mite treatment utilized (Carbamate).
The parasites were thus exposed to a variety of concentrations of miticide. The dosage was determined by the value of the notice of dosage recommendation on the product.
Under experimental conditions 2 lots (T1 and T2) were subjected to the tests. The T1 lot corresponded to a universal test, which is not authorized in breeding since Ivermectine was used. Lot 2 corresponded to a test made with Amitraze.

Row | Compound | Dose to obtain LD50 [pd] | Dose to obtain LD100 [pd] | LD 100 at the dose of the product notice
1 | Cc1ccc(/N=C/N(C)/C=N/c2ccc(C)cc2C)c(C)c1 [Amitraze] | 1 | 1 | obtained with the doses prescribed
2 | Ivermectine | 1 | 1 | obtained with the doses prescribed
